This passage reports IC50 results from US9745320B2, “Five-and-six-membered heterocyclic compound, and preparation method, pharmaceutical composition and use thereof” (SHANGHAI CHEMEXPLORER CO., LTD., priority 2013, dated 2017).

Each structure is given as a SMILES string.

Assay type in all cases: biochemical
The target of one assay is T1, JAK3 (Homo sapiens, UniProt P52333).
T1 sequence (P52333 1-1124): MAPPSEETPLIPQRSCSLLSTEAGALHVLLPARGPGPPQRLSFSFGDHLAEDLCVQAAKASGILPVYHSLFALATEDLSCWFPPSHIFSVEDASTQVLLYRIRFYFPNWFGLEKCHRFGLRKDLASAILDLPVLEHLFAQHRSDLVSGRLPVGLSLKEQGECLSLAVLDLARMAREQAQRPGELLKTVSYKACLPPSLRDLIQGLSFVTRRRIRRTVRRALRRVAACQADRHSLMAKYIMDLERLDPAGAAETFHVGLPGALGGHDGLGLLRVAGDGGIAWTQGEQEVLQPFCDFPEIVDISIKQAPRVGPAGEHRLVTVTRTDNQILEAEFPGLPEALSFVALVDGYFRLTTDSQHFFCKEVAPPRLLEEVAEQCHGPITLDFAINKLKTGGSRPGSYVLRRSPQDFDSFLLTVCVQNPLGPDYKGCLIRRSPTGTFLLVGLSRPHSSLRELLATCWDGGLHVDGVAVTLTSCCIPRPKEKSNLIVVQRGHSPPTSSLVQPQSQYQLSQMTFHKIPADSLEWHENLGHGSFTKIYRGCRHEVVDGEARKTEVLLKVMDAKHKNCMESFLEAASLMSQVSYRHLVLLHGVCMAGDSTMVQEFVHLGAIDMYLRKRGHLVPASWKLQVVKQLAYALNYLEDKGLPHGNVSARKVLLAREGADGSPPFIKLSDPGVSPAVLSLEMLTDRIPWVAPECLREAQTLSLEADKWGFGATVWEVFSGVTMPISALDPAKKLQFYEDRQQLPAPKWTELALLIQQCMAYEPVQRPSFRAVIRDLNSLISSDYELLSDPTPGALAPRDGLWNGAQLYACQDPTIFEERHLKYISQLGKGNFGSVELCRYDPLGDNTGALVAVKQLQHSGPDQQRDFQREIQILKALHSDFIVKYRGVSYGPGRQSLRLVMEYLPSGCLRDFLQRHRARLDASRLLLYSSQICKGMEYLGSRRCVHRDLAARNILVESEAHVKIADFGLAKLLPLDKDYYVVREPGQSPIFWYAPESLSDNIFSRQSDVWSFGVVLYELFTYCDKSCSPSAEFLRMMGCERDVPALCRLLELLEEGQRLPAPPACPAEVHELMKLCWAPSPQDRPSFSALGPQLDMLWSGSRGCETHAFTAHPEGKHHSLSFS
Kind of assay: JAK 3 enzymatic inhibitory activity IC50 assay (Caliper conversion rate). The settings on record: Km ATP, 28° C., 1 hour; read-out: JAK 3 enzymatic inhibitory activity IC50. Here is the method:
(§1) Biological effect: intracytoplasmic JAK 1,2,3 enzymatic inhibitory activity IC50 assay
(§2) JAK1 buffer solution: 25 mM HEPES, pH 7.5, 0.01% Brij-35, 0.01 M Triton. JAK2,3 buffer solution: 50 mM HEPES, pH 7.5, 0.0015% Brij-35.
(§3) 2. Compound was formulated in 100% DMSO in a concentration gradient, deposited to a 384-well plate with a final concentration of 2% of DMSO.
3. JAK2,3 enzymes were diluted to having an optimum concentration with the following buffer: 50 mM HEPES, pH 7.5, 0.0015% Brij-35, 2 mM DTT. JAK1 enzyme was diluted to having an optimum concentration with the following buffer: 25 mM HEPES, pH 7.5, 0.01% Brij-35, 2 mM DTT, 0.01M Triton. Then they were transferred to a 384-well plate and incubated with the compound for a certain time. […]
(§4) 5. Read the conversion rate by Caliper Reader, and the inhibition rate are calculated according to the average of two tests.

The next assay addresses JAK2 (Homo sapiens, UniProt O60674). Kind of assay: JAK 2 enzymatic inhibitory activity IC50 assay (Caliper conversion rate). As to conditions: Km ATP, 28° C., 1 hour. On the procedure:
as §1, §2, §3
(§5) 3. JAK2,3 enzymes were diluted to having an optimum concentration with the following buffer: 50 mM HEPES, pH 7.5, 0.0015% Brij-35, 2 mM DTT. JAK1 enzyme was diluted to having an optimum concentration with the following buffer: 25 mM HEPES, pH 7.5, 0.01% Brij-35, 2 mM DTT, 0.01M Triton. Then they were transferred to a 384-well plate and incubated with the compound for a certain time.
(§6) 4. JAK2,3 substrate was diluted to having an optimum concentration with the following buffer: 50 mM HEPES, pH 7.5, 0.0015% Brij-35, 10 mM MgCl2, Km adenosine triphosphate. JAK1 substrate was diluted to having an optimum concentration with the following buffer: 25 mM HEPES, pH 7.5, 0.01% Brij-35, 10 mM MgCl2, 0.01 M Triton. Km adenosine triphosphate was added into 384-well plates to initiate reactions, and the reaction were carried out at 28° C. for 1 hour.
as §4

The target in a further assay is JAK1 (Homo sapiens, UniProt P23458). Kind of assay: JAK 1 enzymatic inhibitory activity IC50 assay (Caliper conversion rate). The settings on record: Km ATP, 28° C., 1 hour. On the procedure:
as §1, §2, §3, §5, §6, §4

Sequence of JAK2 (O60674 whole entry, species assumed): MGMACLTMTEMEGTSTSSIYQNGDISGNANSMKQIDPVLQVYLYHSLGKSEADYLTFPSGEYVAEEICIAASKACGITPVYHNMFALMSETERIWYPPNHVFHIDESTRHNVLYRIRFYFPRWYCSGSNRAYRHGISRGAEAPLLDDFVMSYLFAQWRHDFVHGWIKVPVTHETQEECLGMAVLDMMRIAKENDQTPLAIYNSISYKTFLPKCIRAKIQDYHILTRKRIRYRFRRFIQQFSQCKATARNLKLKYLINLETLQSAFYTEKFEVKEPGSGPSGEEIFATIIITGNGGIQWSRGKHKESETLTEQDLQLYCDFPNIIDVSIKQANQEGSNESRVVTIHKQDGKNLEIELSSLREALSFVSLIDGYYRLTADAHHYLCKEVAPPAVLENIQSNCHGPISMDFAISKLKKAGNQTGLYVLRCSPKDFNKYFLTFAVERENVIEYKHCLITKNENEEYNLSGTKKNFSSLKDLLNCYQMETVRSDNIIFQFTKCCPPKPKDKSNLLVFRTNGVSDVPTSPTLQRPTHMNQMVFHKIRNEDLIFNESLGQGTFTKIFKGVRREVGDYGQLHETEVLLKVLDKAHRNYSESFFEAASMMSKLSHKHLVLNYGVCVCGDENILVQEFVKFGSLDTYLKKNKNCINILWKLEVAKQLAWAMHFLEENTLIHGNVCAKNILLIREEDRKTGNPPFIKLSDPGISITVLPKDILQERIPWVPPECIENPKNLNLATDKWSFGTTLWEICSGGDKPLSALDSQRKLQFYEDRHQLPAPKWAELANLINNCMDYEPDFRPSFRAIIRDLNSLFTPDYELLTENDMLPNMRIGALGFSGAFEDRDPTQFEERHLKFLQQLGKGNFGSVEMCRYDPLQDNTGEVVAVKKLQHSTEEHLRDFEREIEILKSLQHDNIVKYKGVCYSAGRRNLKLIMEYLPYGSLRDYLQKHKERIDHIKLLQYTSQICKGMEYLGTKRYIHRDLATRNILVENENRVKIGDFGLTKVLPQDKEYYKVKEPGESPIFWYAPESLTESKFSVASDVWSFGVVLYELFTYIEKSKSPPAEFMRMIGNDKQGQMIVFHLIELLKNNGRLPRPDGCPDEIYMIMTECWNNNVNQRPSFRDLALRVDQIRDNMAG
Sequence of JAK1 (P23458 whole entry, species assumed): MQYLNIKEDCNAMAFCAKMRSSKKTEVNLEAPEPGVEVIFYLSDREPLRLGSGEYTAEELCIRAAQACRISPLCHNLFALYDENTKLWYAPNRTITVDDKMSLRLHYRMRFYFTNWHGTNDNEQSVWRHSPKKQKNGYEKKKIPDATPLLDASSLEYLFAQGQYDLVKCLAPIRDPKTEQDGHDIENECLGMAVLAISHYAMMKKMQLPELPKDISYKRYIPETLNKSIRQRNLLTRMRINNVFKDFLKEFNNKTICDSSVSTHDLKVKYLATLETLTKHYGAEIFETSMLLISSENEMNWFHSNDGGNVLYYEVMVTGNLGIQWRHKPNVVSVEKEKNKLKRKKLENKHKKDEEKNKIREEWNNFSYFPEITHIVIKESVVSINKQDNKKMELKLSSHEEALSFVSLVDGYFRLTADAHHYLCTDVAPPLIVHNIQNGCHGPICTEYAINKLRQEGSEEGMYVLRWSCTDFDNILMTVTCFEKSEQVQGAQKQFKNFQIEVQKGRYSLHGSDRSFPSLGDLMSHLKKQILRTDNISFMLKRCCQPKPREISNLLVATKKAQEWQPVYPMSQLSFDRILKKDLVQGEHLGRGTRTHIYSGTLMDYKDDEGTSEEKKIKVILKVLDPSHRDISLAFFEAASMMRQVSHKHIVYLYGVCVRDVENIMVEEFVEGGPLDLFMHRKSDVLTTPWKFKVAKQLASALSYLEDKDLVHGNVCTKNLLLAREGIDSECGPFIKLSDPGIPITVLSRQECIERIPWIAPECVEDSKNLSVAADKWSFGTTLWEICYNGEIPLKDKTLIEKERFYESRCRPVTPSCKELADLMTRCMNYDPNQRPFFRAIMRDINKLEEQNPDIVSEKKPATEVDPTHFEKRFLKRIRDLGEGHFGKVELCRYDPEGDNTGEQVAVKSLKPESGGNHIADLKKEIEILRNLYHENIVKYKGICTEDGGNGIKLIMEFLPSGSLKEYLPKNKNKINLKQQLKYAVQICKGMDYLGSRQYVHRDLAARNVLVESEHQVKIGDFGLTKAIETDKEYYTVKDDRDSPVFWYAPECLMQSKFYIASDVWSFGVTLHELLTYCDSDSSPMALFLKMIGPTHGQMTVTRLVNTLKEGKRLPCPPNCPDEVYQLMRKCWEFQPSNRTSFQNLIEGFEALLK

In the case of `CCS(=O)(=O)N1CC(CC#N)(n2cc(-c3nc(Nc4ccc(-n5cccn5)cc4)nc4ccsc34)cn2)C1` [Compound T-11, 2-(3-(4-(2-((4-(1H-Pyrazol-1-yl)phenyl)amino)thieno[3,2-d]pyrimidin-4-yl)-1H-pyrazol-1-yl)-1-(ethylsulfonyl)azetidin-3-yl)acetonitrile], the IC50 on JAK3 was above 1 µM; on JAK2, below 0.05 µM; at JAK1 it was 0.05 to 0.5 µM.

Turning to `CCS(=O)(=O)N1CC(CC#N)(n2cc(-c3nc(Nc4ccc(C#N)nc4)nc4ccsc34)cn2)C1` [Compound T-22, 5-((4-(1-(3-(Cyanomethyl)-1-(ethylsulfonyl)azetidin-3-yl)-1H-pyrazol-4-yl)thieno[3,2-d]pyrimidin-2-yl)amino)picolinonitrile], the half-maximal inhibitory concentration (IC50) is above 1 µM at JAK3, below 0.05 µM on JAK2 and above 1 µM against JAK1.

On to `CCS(=O)(=O)N1CC(CC#N)(n2cc(-c3nc(Nc4cnn(C5COC5)c4)nc4ccsc34)cn2)C1` [Compound T-39, 2-(1-(Ethylsulfonyl)-3-(4-(2-((1-(oxetan-3-yl)-1H-pyrazol-4-yl)amino)thieno[3,2-d]pyrimidin-4-yl)-1H-pyrazol-1-yl)azetidin-3-yl)acetonitrile], for which the half-inhibitory concentration (IC50) on JAK3 was below 0.05 µM; against JAK2, below 0.05 µM; against JAK1 it was 0.05 to 0.5 µM.

On to `N#CCC1(n2cc(-c3nc(Nc4ccccc4)nc4ccsc34)cn2)COC1` [Compound T-20, 2-(3-(4-(2-(Phenylamino)thieno[3,2-d]pyrimidin-4-yl)-1H-pyrazol-1-yl)oxetan-3-yl)acetonitrile], for which the IC50 on JAK3 was 0.5 to 1 µM; against JAK2, below 0.05 µM; at JAK1 it was 0.05 to 0.5 µM.

Consider `CCS(=O)(=O)N1CC(CC#N)(n2cc(-c3nc(Nc4cnn(C(=O)COC)c4)nc4ccsc34)cn2)C1` [Compound T-32, 2-(1-(Ethylsulfonyl)-3-(4-(2-((1-(2-methoxyacetyl)-1H-pyrazol-4-yl)amino)thieno[3,2-d]pyrimidin-4-yl)-1H-pyrazol-1-yl)azetidin-3-yl)acetonitrile], for which the IC50 on JAK3, on JAK2 and at JAK1 was below 0.05 µM each time.

As for `Cn1cc(Nc2nc(-c3cnn(C4(CC#N)COC4)c3)c3sccc3n2)cn1` [Compound T-43, 2-(3-(4-(2-((1-Methyl-1H-pyrazol-4-yl)amino)thieno[3,2-d]pyrimidin-4-yl)-1H-pyrazol-1-yl)oxetan-3-yl)acetonitrile], the IC50 on JAK3 is 0.05 to 0.5 µM; against JAK2, below 0.05 µM; on JAK1, 0.05 to 0.5 µM.

Turning to `CCS(=O)(=O)N1CC(CC#N)(n2cc(-c3nc(Nc4ccc(OCCN5CCCC5)cc4)nc4ccsc34)cn2)C1` [Compound T-09, 2-(1-(Ethylsulfonyl)-3-(4-(2-((4-(2-(pyrrolidin-1-yl)ethoxy)phenyl)amino)thieno[3,2-d]pyrimidin-4-yl)-1H-pyrazol-1-yl)azetidin-3-yl)acetonitrile], the figures for the IC50 on JAK3, against JAK2 and on JAK1 were 0.05 to 0.5 µM, below 0.05 µM and 0.05 to 0.5 µM, respectively.

On to `C[C@@H](CO)n1cc(Nc2nc(-c3cnn(C4(CC#N)CN(S(C)(=O)=O)C4)c3)c3sccc3n2)cn1` [Compound T-85, (S)-2-(3-(4-(2-((1-(1-Hydroxypropan-2-yl)-1H-pyrazol-4-yl)amino)thieno[3,2-d]pyrimidin-4-yl)-1H-pyrazol-1-yl)-1-(methylsulfonyl)azetidin-3-yl)acetonitrile], for which the IC50 at JAK3, on JAK2 and on JAK1 was below 0.05 µM in each case.

On to `CCS(=O)(=O)N1CC(CC#N)(n2cc(-c3nc(Nc4cnn(C(C)=O)c4)nc4ccsc34)cn2)C1` [Compound T-52, 2-(3-(4-(2-((1-Acetyl-1H-pyrazol-4-yl)amino)thieno[3,2-d]pyrimidin-4-yl)-1H-pyrazol-1-yl)-1-(ethylsulfonyl)azetidin-3-yl)acetonitrile], for which the IC50 at JAK3 was 0.05 to 0.5 µM; on JAK2, below 0.05 µM; at JAK1 it was below 0.05 µM.

With `CCS(=O)(=O)N1CC(CC#N)(n2cc(-c3nc(Nc4ccc(-c5nn[nH]n5)cc4)nc4ccsc34)cn2)C1` [Compound T-45, 2-(3-(4-(2-((4-(2H-Tetrazol-5-yl)phenyl)amino)thieno[3,2-d]pyrimidin-4-yl)-1H-pyrazol-1-yl)-1-(ethylsulfonyl)azetidin-3-yl)acetonitrile], the half-inhibitory concentration (IC50) at JAK3 was 0.05 to 0.5 µM; against JAK2, below 0.05 µM; against JAK1, below 0.05 µM.

With `CCS(=O)(=O)N1CC(CC#N)(n2cc(-c3nc(Nc4cccnc4)nc4ccsc34)cn2)C1` [Compound T-26, 2-(1-(Ethylsulfonyl)-3-(4-(2-(pyridin-3-ylamino)thieno[3,2-d]pyrimidin-4-yl)-1-pyrazol-1-yl)azetidin-3-yl)acetonitrile], the IC50 at JAK3 is 0.05 to 0.5 µM; against JAK2, below 0.05 µM; at JAK1 it was below 0.05 µM.

Regarding `CCS(=O)(=O)N1CC(CC#N)(n2cc(-c3nc(Nc4ccccc4)nc4ccsc34)cn2)C1` [Compound T-05, 2-(1-(Ethylsulfonyl)-3-(4-(2-(phenylamino)thieno[3,2-d]pyrimidin-4-yl)-1H-pyrazol-1-yl)azetidin-3-yl)acetonitrile], the IC50 on JAK3 is 0.05 to 0.5 µM; on JAK2, below 0.05 µM; at JAK1 it was 0.05 to 0.5 µM.

Take `CCS(=O)(=O)N1CC(CC#N)(n2cc(-c3nc(Nc4ccc(-n5cncn5)cc4)nc4ccsc34)cn2)C1` [Compound T-10, 2-(3-(4-(2-((4-(1H-1,2,4-Triazol-1-yl)phenyl)amino)thieno[3,2-d]pyrimidin-4-yl)-1H-pyrazol-1-yl)-1-(ethylsulfonyl)azetidin-3-yl)acetonitrile]: the results for the IC50 at JAK3, at JAK2 and on JAK1 were 0.05 to 0.5 µM, below 0.05 µM and below 0.05 µM, respectively.

As to `C[C@@H](O)Cn1cc(Nc2nc(-c3cnn(C4(CC#N)CN(S(C)(=O)=O)C4)c3)c3sccc3n2)cn1` [Compound T-86, (R)-2-(3-(4-(2-((1-(2-Hydroxypropyl)-1H-pyrazol-4-yl)amino)thieno[3,2-d]pyrimidin-4-yl)-1H-pyrazol-1-yl)-1-(methylsulfonyl)azetidin-3-yl)acetonitrile], the IC50 at JAK3, at JAK2 and against JAK1 was below 0.05 µM each time.

Turning to `CCS(=O)(=O)N1CC(CC#N)(n2cc(-c3nc(Nc4ccccc4)nc4ccoc34)cn2)C1` [Compound T-30, 2-(1-(Ethylsulfonyl)-3-(4-(2-(phenylamino)furo[3,2-d]pyrimidin-4-yl)-1H-pyrazol-1-yl)azetidin-3-yl)acetonitrile], the IC50 on JAK3 is 0.05 to 0.5 µM; against JAK2, below 0.05 µM; on JAK1, 0.05 to 0.5 µM.

As to `CCS(=O)(=O)N1CC(CC#N)(n2cc(-c3nc(Nc4cnn(CCCC(=O)N(C)C)c4)nc4ccsc34)cn2)C1` [Compound T-37, 4-(4-((4-(1-(3-(Cyanomethyl)-1-(ethylsulfonyl)azetidin-3-yl)-1H-pyrazol-4-yl)thieno[3,2-d]pyrimidin-2-yl)amino)-1H-pyrazol-1-yl)-N,N-dimethylbutanamide], the IC50 at JAK3, at JAK2 and on JAK1 was below 0.05 µM each time.
